# Data: patent publication US10500166B2, “Methods for the treatment of erectile dysfunction using fispemifene” (QUATRX PHARMACEUTICALS, priority 2007, dated 2019)
# Assays:
# [1] = system: E2 (estradiol); assay: Example 3 study in hypogonadal men: serum estradiol (ITT); assay type: in vivo, human; conditions: for Estradiol, Max / Estradiol, Mean ± SD / Estradiol, Median / Estradiol, Min: Baseline (Visit 2);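 on Estradiol, Max: estradiol concentrations in pg/mL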;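 on Estradiol, Mean ± SD: estradiol concentrations in pg/mL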;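 on Estradiol, Median: estradiol concentrations in pg/mL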;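 on Estradiol, Min: estradiol concentrations in pg/mL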
# Method: (§1) A randomized, double-blind, placebo controlled, parallel-group study of once-daily doses of fispemifene (100, 200, and 300 mg/day) given for 4 weeks was conducted in a population of hypogonadal men. Subjects were required to meet all of the following inclusion criteria at screening and prior to randomization to be eligible for the study:
# (§2) There were 77 subjects total. The number of subjects randomized to the 100 mg fispemifene, 200 mg fispemifene, 300 mg fispemifene, and placebo arms were 21, 21, 19, and 16, respectively.
# (§3) Subjects were randomly assigned to one of four treatment groups in a 1:1:1:1 ratio: • Treatment A (100 mg): fispemifene 100 mg+placebo+placebo; • Treatment B (200 mg): fispemifene 100 mg+fispemifene 100 mg+placebo; • Treatment C (300 mg): fispemifene 100 mg+fispemifene 100 mg+fispemifene 100 mg; and • Treatment D (Placebo): placebo+placebo+placebo.
# (§4) Subjects took one dose (three capsules) of study medication once a day at home for 4 weeks. Capsules were to be taken in the morning immediately after breakfast, with the exception of the morning of the Week 4 visit. Capsules were not to be taken on the morning of the Week 4 visit because trough plasma levels of fispemifene were determined by a blood sample taken at this visit. Each subject was randomly assigned to treatment with one of the 3 different dose regimens of fispemifene or placebo vehicle. Each subject received a 4 week supply of study drug.
# (§5) Blood samples were taken from the subjects within 1 week prior to dosing with study drug to establish baseline values; after 2 and 4 weeks of randomization; and 2 weeks after the last dose of study drug. Serum was prepared from those samples and used to determine the mean % change from baseline in total testosterone, free testosterone, SHBG (sex hormone-binding globulin), DHT (dihydrotestosterone), E2 (estradiol), LH (luteinizing hormone), FSH (follicle stimulating hormone), and inhibin B.
# (§6) 3. Percent change from baseline in SHBG, DHT, E2, LH, FSH, inhibin B, and testosterone/E2 ratio at Weeks 2, 4, and 6.
# [2] = system: inhibin B; assay: Example 3 study in hypogonadal men: serum inhibin B (ITT); assay type: in vivo, human; conditions: for Inhibin B % Change from Baseline to Week 2, Max / Inhibin B % Change from Baseline to Week 2, Mean ± SD / Inhibin B % Change from Baseline to Week 2, Median / Inhibin B % Change from Baseline to Week 2, Min: Week 2, (Week minus Baseline) divided by Baseline; for Inhibin B % Change from Baseline to Week 2, Max / Inhibin B % Change from Baseline to Week 2, Mean ± SD / Inhibin B % Change from Baseline to Week 2, Median / Inhibin B % Change from Baseline to Week 2, Min / Inhibin B % Change from Baseline to Week 4, Max / Inhibin B % Change from Baseline to Week 4, Mean ± SD / Inhibin B % Change from Baseline to Week 4, Median / Inhibin B % Change from Baseline to Week 4, Min / Inhibin B % Change from Baseline to Week 6, Max / Inhibin B % Change from Baseline to Week 6, Mean ± SD / Inhibin B % Change from Baseline to Week 6, Median / Inhibin B % Change from Baseline to Week 6, Min: LOCF; for Inhibin B % Change from Baseline to Week 4, Max / Inhibin B % Change from Baseline to Week 4, Mean ± SD / Inhibin B % Change from Baseline to Week 4, Median / Inhibin B % Change from Baseline to Week 4, Min: Week 4, (Week minus Baseline) divided by Baseline; for Inhibin B % Change from Baseline to Week 6, Max / Inhibin B % Change from Baseline to Week 6, Mean ± SD / Inhibin B % Change from Baseline to Week 6, Median / Inhibin B % Change from Baseline to Week 6, Min: Week 6, (Week minus Baseline) divided by Baseline
# Method: as §1, §2, §3, §4, §5, §6
# [3] = 100 mg/day, to Week 6 (2 weeks after discontinuation)
# [4] = 200 mg/day, to Week 6 (2 weeks after discontinuation)
# [5] = 300 mg/day, to Week 6 (2 weeks after discontinuation)
structure (smiles),measurement,setting,value
"OCCOCCOc1ccc(/C(=C(/CCCl)c2ccccc2)c2ccccc2)cc1 [Fispemifene, (Z)-2-{2-[4-(4-Chloro-1,2-diphenylbut-1-enyl)phenoxy]ethoxy}ethanol]","Estradiol, Max",[1]; 100 mg/day,34.0 pg/mL
same,"Estradiol, Mean ± SD",[1]; 100 mg/day,18.2 ± 6.54 pg/mL
same,"Estradiol, Median",[1]; 100 mg/day,18.0 pg/mL
same,"Estradiol, Min",[1]; 100 mg/day,10.0 pg/mL
same,"Estradiol, % Change from Baseline, Max","[1]; 100 mg/day, to Week 2",131%
same,"Estradiol, % Change from Baseline, Median","[1]; 100 mg/day, to Week 2",32%
same,"Estradiol, % Change from Baseline, Max","[1]; 100 mg/day, to Week 4",110%
same,"Estradiol, % Change from Baseline, Median","[1]; 100 mg/day, to Week 4",31%
same,"Estradiol, % Change from Baseline, Max",[1]; [3],80%
same,"Estradiol, % Change from Baseline, Median",[1]; [3],13%
same,"Estradiol, Max",[1]; 200 mg/day,33.0 pg/mL
same,"Estradiol, Mean ± SD",[1]; 200 mg/day,19.2 ± 6.23 pg/mL
same,"Estradiol, Median",[1]; 200 mg/day,17.0 pg/mL
same,"Estradiol, Min",[1]; 200 mg/day,11.0 pg/mL
same,"Estradiol, % Change from Baseline, Max","[1]; 200 mg/day, to Week 2",171%
same,"Estradiol, % Change from Baseline, Median","[1]; 200 mg/day, to Week 2",23%
same,"Estradiol, % Change from Baseline, Max","[1]; 200 mg/day, to Week 4",150%
same,"Estradiol, % Change from Baseline, Median","[1]; 200 mg/day, to Week 4",43%
same,"Estradiol, % Change from Baseline, Max",[1]; [4],176%
same,"Estradiol, % Change from Baseline, Median",[1]; [4],23%
same,"Estradiol, Max",[1]; 300 mg/day,42.0 pg/mL
same,"Estradiol, Mean ± SD",[1]; 300 mg/day,20.8 ± 7.15 pg/mL
same,"Estradiol, Median",[1]; 300 mg/day,22.0 pg/mL
same,"Estradiol, Min",[1]; 300 mg/day,10.0 pg/mL
same,"Estradiol, % Change from Baseline, Max","[1]; 300 mg/day, to Week 2",108%
same,"Estradiol, % Change from Baseline, Median","[1]; 300 mg/day, to Week 2",33%
same,"Estradiol, % Change from Baseline, Max","[1]; 300 mg/day, to Week 4",100%
same,"Estradiol, % Change from Baseline, Median","[1]; 300 mg/day, to Week 4",29%
same,"Estradiol, % Change from Baseline, Max",[1]; [5],77%
same,"Estradiol, % Change from Baseline, Median",[1]; [5],0%
same,effect on serum estradiol levels,"[1]; hypogonadal men, 100-300 mg/day for 4 weeks",increased
same,"Inhibin B % Change from Baseline to Week 2, Max",[2]; 100 mg,1.64
same,"Inhibin B % Change from Baseline to Week 2, Mean ± SD",[2]; 100 mg,0.24 ± 0.493
same,"Inhibin B % Change from Baseline to Week 2, Median",[2]; 100 mg,0.17
same,"Inhibin B % Change from Baseline to Week 2, Min",[2]; 100 mg,−0.44
same,"Inhibin B % Change from Baseline to Week 4, Max",[2]; 100 mg,1.86
same,"Inhibin B % Change from Baseline to Week 4, Mean ± SD",[2]; 100 mg,0.30 ± 0.631
same,"Inhibin B % Change from Baseline to Week 4, Median",[2]; 100 mg,0.09
same,"Inhibin B % Change from Baseline to Week 4, Min",[2]; 100 mg,−0.61
same,"Inhibin B % Change from Baseline to Week 6, Max",[2]; 100 mg,1.40
same,"Inhibin B % Change from Baseline to Week 6, Mean ± SD",[2]; 100 mg,0.41 ± 0.572
same,"Inhibin B % Change from Baseline to Week 6, Median",[2]; 100 mg,0.29
same,"Inhibin B % Change from Baseline to Week 6, Min",[2]; 100 mg,−0.41
same,"Inhibin B Actual Value at Baseline (Visit 2), Max",[2]; 100 mg,191.0 pg/mL
same,"Inhibin B Actual Value at Baseline (Visit 2), Mean ± SD",[2]; 100 mg,95.1 ± 46.32 pg/mL
same,"Inhibin B Actual Value at Baseline (Visit 2), Median",[2]; 100 mg,89.0 pg/mL
same,"Inhibin B Actual Value at Baseline (Visit 2), Min",[2]; 100 mg,22.0 pg/mL
same,"Inhibin B % Change from Baseline to Week 2, Max",[2]; 200 mg,1.48
same,"Inhibin B % Change from Baseline to Week 2, Mean ± SD",[2]; 200 mg,039 ± 0.534
same,"Inhibin B % Change from Baseline to Week 2, Median",[2]; 200 mg,0.21
same,"Inhibin B % Change from Baseline to Week 2, Min",[2]; 200 mg,−0.22
same,"Inhibin B % Change from Baseline to Week 4, Max",[2]; 200 mg,3.40
same,"Inhibin B % Change from Baseline to Week 4, Mean ± SD",[2]; 200 mg,0.42 ± 0.862
same,"Inhibin B % Change from Baseline to Week 4, Median",[2]; 200 mg,0.12
same,"Inhibin B % Change from Baseline to Week 4, Min",[2]; 200 mg,−0.44
same,"Inhibin B % Change from Baseline to Week 6, Max",[2]; 200 mg,2.00
same,"Inhibin B % Change from Baseline to Week 6, Mean ± SD",[2]; 200 mg,0.40 ± 0.628
same,"Inhibin B % Change from Baseline to Week 6, Median",[2]; 200 mg,0.22
same,"Inhibin B % Change from Baseline to Week 6, Min",[2]; 200 mg,−0.34
same,"Inhibin B Actual Value at Baseline (Visit 2), Max",[2]; 200 mg,220.0 pg/mL
same,"Inhibin B Actual Value at Baseline (Visit 2), Mean ± SD",[2]; 200 mg,105.6 ± 59.43 pg/mL
same,"Inhibin B Actual Value at Baseline (Visit 2), Median",[2]; 200 mg,95.0 pg/mL
same,"Inhibin B Actual Value at Baseline (Visit 2), Min",[2]; 200 mg,16.0 pg/mL
same,"Inhibin B % Change from Baseline to Week 2, Max",[2]; 300 mg,0.97
same,"Inhibin B % Change from Baseline to Week 2, Mean ± SD",[2]; 300 mg,0.12 ± 0.400
same,"Inhibin B % Change from Baseline to Week 2, Median",[2]; 300 mg,0.05
same,"Inhibin B % Change from Baseline to Week 2, Min",[2]; 300 mg,−0.42
same,"Inhibin B % Change from Baseline to Week 4, Max",[2]; 300 mg,0.878
same,"Inhibin B % Change from Baseline to Week 4, Mean ± SD",[2]; 300 mg,0.016 ± 0.2904
same,"Inhibin B % Change from Baseline to Week 4, Median",[2]; 300 mg,−0.012
same,"Inhibin B % Change from Baseline to Week 4, Min",[2]; 300 mg,−0.459
same,"Inhibin B % Change from Baseline to Week 6, Max",[2]; 300 mg,0.645
same,"Inhibin B % Change from Baseline to Week 6, Mean ± SD",[2]; 300 mg,0.004 ± 0.3349
same,"Inhibin B % Change from Baseline to Week 6, Median",[2]; 300 mg,−0.057
same,"Inhibin B % Change from Baseline to Week 6, Min",[2]; 300 mg,−0.493
same,"Inhibin B Actual Value at Baseline (Visit 2), Max",[2]; 300 mg,334.0 pg/mL
same,"Inhibin B Actual Value at Baseline (Visit 2), Mean ± SD",[2]; 300 mg,127.3 ± 75.76 pg/mL
same,"Inhibin B Actual Value at Baseline (Visit 2), Median",[2]; 300 mg,128.0 pg/mL
same,"Inhibin B Actual Value at Baseline (Visit 2), Min",[2]; 300 mg,16.0 pg/mL
